Results from patent publication US9498463B2, “Compound obtained from gamboge resin, and medical uses of the same” (priority 2010, dated 2016).
pIC50: −log10 of the molar value. In brackets after ≈: the same amount, converted by molar mass. Where two headings read alike, the source gives them in different places.

Key:
[1] = system: Human umbilical venal epithelial cell (HUVEC); assay: in vitro; settings: HUVEC; for LC50 (50% lethal concentration): normal human cell line; for IC50: Homo sapiens, read-out: IC50 (50% inhibition concentration), HUVEC, normal human cell line
From the text: (§1) In Vitro Anti-Cancer Test
(§2) The in vitro anti-cancer test was primarily used to detect the effect of a candidate drug on cancer cell proliferation. The working principle involved therein is the ability of viable cells to shift alamarBlue (AbD Serotec, UK) from its originally non-fluorescent oxidized state (non-fluorescent, blue) to a reduced form (fluorescent, red) having fluorescence via metabolic reaction. According to the fluorescent data result generated by the alamarBlue reagent thus obtained, the proliferation of the viable cells and cell activity can be quantified for detection.
(§3) In the in vitro anti-cancer tests, a candidate drug was tested at 5 different concentrations of 0.01, 0.1, 1, 10, and 100 μg/ml, and six human cancer cell lines and a normal human cell line were used (see Table 5).

[2] = system: Human histocytic lymphoma cell U937; assay: cells; settings: U-937, read-out: IC50 (50% inhibition concentration), U937
From the text: as §1, §2, §3

[3] = system: Human colon adenocarcinoma cell HT-29; assay: cells; settings: HT-29, read-out: IC50 (50% inhibition concentration), HT-29
From the text: as §1, §2, §3

[4] = system: Human breast adenocarcinoma cell MCF7; assay: cells; settings: for IC50: Homo sapiens, MCF7, read-out: IC50 (50% inhibition concentration), MCF-7
From the text: as §1, §2, §3

[5] = system: Human lung carcinoma cell A549; assay: cells
From the text: as §1, §2, §3

[6] = system: Human hepatocellular carcinoma cell HepG2; assay: cells; settings: HepG2, read-out: IC50 (50% inhibition concentration), HepG2
From the text: as §1, §2, §3

[7] = system: Human promyelocytic leukemia cell HL-60; assay: cells; settings: HL-60, read-out: IC50 (50% inhibition concentration), HL-60
From the text: as §1, §2, §3

[8] = in vitro
From the text: as §1, §2, §3

[9] = A549, read-out: IC50 (50% inhibition concentration), A549

SMILES: CC(C)=CCC[C@@]1(C)C=Cc2c(O)c3c(c(C(O)C4OC4(C)C)c2O1)O[C@]12C(=C[C@@H]4CC1C(C)(C)OC2(C/C=C(/C)C(=O)O)C4=O)C3=O (stereo partly drawn) [Gh-3311, 2-butenoic acid, 2-methyl-4-[(1R,3aS,5S,11S,14aS)-3a,4,5,7-tetrahydro-8-hydroxy-3,3,11-trimethyl-13-(1-hydroxy-2,3-epoxy-3-methylbutyl)-11-(4-methyl-3-pentenyl)-7,15-dioxo-1,5-methano-1H,3H,11H-furo[3.4-g]pyrano[3.2-b]xanthen-1-yl]-,(2Z)-]
- LC50 (50% lethal concentration) [1]: 13.9 µg/mL (≈ 21 µM)

SMILES: CC(C)=CCC[C@]1(C)C=Cc2c(O)c3c(c(CC4OC4(C)C)c2O1)O[C@]12C(=C[C@@H]4CC1C(C)(C)OC2(C/C=C(/C)C(=O)O)C4=O)C3=O (stereo partly drawn) [Gh-3352, 2-butenoic acid, 2-methyl-4-[(1R,3aS,5S,11R,14aS)-3a,4,5,7-tetrahydro-8-hydroxy-3,3,11-trimethyl-13-(2,3-epoxy-3-methylbutyl)-11-(4-methyl-3-pentenyl)-7,15-dioxo-1,5-methano-1H,3H,11H-furo[3.4-g]pyrano[3.2-b]xanthen-1-yl]-,(2Z)-]
- LC50 (50% lethal concentration) [1]: 0.85 µg/mL (≈ 1.32 µM)

SMILES: C=C(C)C(O)CC[C@]1(C)C=Cc2c(O)c3c(c(CC=C(C)C)c2O1)O[C@]12C(=C[C@@H]4CC1C(C)(C)OC2(C/C=C(/C)C(=O)O)C4=O)C3=O (stereo partly drawn) [Gh-3291, 2-butenoic acid, 2-methyl-4-[(1R,3aS,5S,11R,14aS)-3a,4,5,7-tetrahydro-8-hydroxy-3,3,11-trimethyl-13-(3-methyl-2-butenyl)-11-(3-hydroxy-4-methyl-4-pentenyl)-7,15-dioxo-1,5-methano-1H,3H,11H-furo[3.4-g]pyrano[3.2-b]xanthen-1-yl]-,(2Z)-]
- LC50 (50% lethal concentration) [1]: 1.4 µg/mL (≈ 2.17 µM)

SMILES: CC(C)=CCc1c2c(c(O)c3c1O[C@]14C(=C[C@@H]5CC1C(C)(C)OC4(C/C=C(/C)C(=O)O)C5=O)C3=O)C=C[C@](C)(CCC(O)C(C)(C)O)O2 (stereo partly drawn) [Gh-3271, 2-butenoic acid, 2-methyl-4-[(1R,3aS,5S,11S,14aS)-3a,4,5,7-tetrahydro-8-hydroxy-3,3,11-trimethyl-13-(3-methyl-2-butenyl)-11-(3,4-dihydroxy-4-methylpentyl)-7,15-dioxo-1,5-methano-1H,3H,11H-furo[3.4-g]pyrano[3.2-b]xanthen-1-yl]-,(2Z)-]
- IC50 [2]: 0.11 µg/mL (≈ 0.166 µM)
- IC50 [3]: 1.8 µg/mL (≈ 2.72 µM)
- IC50 [4]: 0.16 µg/mL
- IC50 [5, 9]: 0.25 µg/mL (≈ 0.377 µM)
- IC50 [6]: 0.46 µg/mL (≈ 0.694 µM)
- IC50 [7]: 3 µg/mL (≈ 4.53 µM)
- IC50 [1]: 0.42 µg/mL (≈ 0.634 µM)

SMILES: CC(C)=CCc1c2c(c(O)c3c1O[C@]14C(=C[C@@H]5CC1C(C)(C)OC4(C/C=C(/C)C(=O)O)C5=O)C3=O)C=C[C@@](C)(CCC(O)C(C)(C)O)O2 (stereo partly drawn) [Gh-3261, 2-butenoic acid, 2-methyl-4-[(1R,3aS,5S,11R,14aS)-3a,4,5,7-tetrahydro-8-hydroxy-3,3,11-trimethyl-13-(3-methyl-2-butenyl)-11-(3,4-dihydroxy-4-methylpentyl)-7,15-dioxo-1,5-methano-1H,3H,11H-furo[3.4-g]pyrano[3.2-b]xanthen-1-yl]-,(2Z)-]
- IC50 [2]: 0.11 µg/mL (≈ 0.166 µM)
- IC50 [3]: 1.1 µg/mL (≈ 1.66 µM)
- IC50 [4]: 0.36 µg/mL
- IC50 [5, 9]: 0.19 µg/mL (≈ 0.287 µM)
- IC50 [6]: 1 µg/mL (≈ 1.51 µM)
- IC50 [7]: 1.9 µg/mL (≈ 2.87 µM)
- IC50 [1]: 0.29 µg/mL (≈ 0.438 µM)

SMILES: C=C(C)C1CC[C@]2(C)C[C@H]1c1c(O)c3c(c(CC=C(C)C)c1O2)O[C@]12C(=C[C@@H]4CC1C(C)(C)OC2(C/C=C(/C)C(=O)O)C4=O)C3=O (stereo partly shown) [Gh-2603-2, gambogellic acid]
- IC50 ([5]; A549, read-out: IC50 (50% inhibition concentration)): 0.2 µg/mL (≈ 0.318 µM)
- CC50 [8]: 1.7 µg/mL (≈ 2.7 µM)

SMILES: CC(C)=CCc1c2c(c(O)c3c1O[C@]14C(=C[C@@H]5CC1C(C)(C)OC4(C/C=C(\C)C(=O)O)C5=O)C3=O)C=CC(C)(C/C=C\C(C)(C)O)O2 (stereo in doubt) [Gh-3332, 2-butenoic acid, 2-methyl-4-[(1R,3aS,5S,14aS)-3a,4,5,7-tetrahydro-8-hydroxy-3,3,11-trimethyl-13-(3-methyl-2-butenyl)-11-(4-hydroxy-4-methyl-2Z-pentenyl)-7,15-dioxo-1,5-methano-1H,3H,11H-furo[3.4-g]pyrano[3.2-b]xanthen-1-yl]-,(2E)-]
- LC50 (50% lethal concentration) [1]: 3.3 µg/mL (≈ 5.12 µM)

SMILES: CC(C)=CCC[C@@]1(C)Oc2c(c(O)c3c(c2CC=C(C)C)O[C@]24C(=C[C@@H]5CC2C(C)(C)OC4(C/C=C(/C)C(=O)O)C5=O)C3=O)C[C@H]1O (stereo in doubt) [Gh-1631, 2-butenoic acid, 2-methyl-4-[(1R,3aS,5S,10R,11R,14aS)-3a,4,5,7,10,11-hexahydro-8,10-dihydroxy-3,3,11-trimethyl-13-(3-methyl-2-butenyl)-11-(4-methyl-3-pentenyl)-7,15-dioxo-1,5-methano-1H,3H,9H-furo[3.4-g]pyrano[3.2-b]xanthen-1-yl]-,(2Z)-]
- IC50 [2]: 0.18 µg/mL (≈ 0.278 µM)
- IC50 [3]: 6.1 µg/mL (≈ 9.43 µM)
- IC50 [4]: 0.14 µg/mL
- IC50 [5, 9]: 0.14 µg/mL (≈ 0.216 µM)
- IC50 [6]: 0.85 µg/mL (≈ 1.31 µM)
- IC50 [7]: 0.19 µg/mL (≈ 0.294 µM)
- IC50 [1]: 0.58 µg/mL (≈ 0.897 µM)

SMILES: C=C(C)C1CC[C@@]2(C)Oc3c(CC=C(C)C)c4c(c(O)c3[C@@H]1C2O)C(=O)C1=C[C@@H]2CC3C(C)(C)OC(C/C=C(/C)C(=O)O)(C2=O)[C@@]13O4 (stereo in doubt) [Gh-1050, 2-butenoic acid, 2-methyl-4-[(1R,3aS,5S,9R,10S,13R,16aS,17S)-3a,4,5,7,10,11,12,13-octahydro-8,17-dihydroxy-3,3,13-trimethyl-15-(3-methyl-2-butenyl)-10-(1-methylethenyl)-7,18-dioxo-1,5:9,13-dimethano-1H,3H,9H-furo[3.4-g]oxocino[3.2-b]xanthen-1-yl]-,(2Z)-]
- LC50 (50% lethal concentration) [1]: 3.4 µg/mL (≈ 5.27 µM)

SMILES: CC(C)=CCC[C@]1(C)C=Cc2c(O)c3c(c(C(O)C4OC4(C)C)c2O1)O[C@]12C(=C[C@@H]4CC1C(C)(C)OC2(C/C=C(/C)C(=O)O)C4=O)C3=O (stereo partly drawn) [Gh-3353, 2-butenoic acid, 2-methyl-4-[(1R,3aS,5S,11R,14aS)-3a,4,5,7-tetrahydro-8-hydroxy-3,3,11-trimethyl-13-(1-hydroxy-2,3-epoxy-3-methylbutyl)-11-(4-methyl-3-pentenyl)-7,15-dioxo-1,5-methano-1H,3H,11H-furo[3.4-g]pyrano[3.2-b]xanthen-1-yl]-,(2Z)-]
- LC50 (50% lethal concentration) [1]: 8.4 µg/mL (≈ 12.7 µM)

SMILES: CC(C)=CCC[C@@]1(C)C=Cc2c(O)c3c(c(CC4OC4(C)C)c2O1)O[C@]12C(=C[C@@H]4CC1C(C)(C)OC2(C/C=C(/C)C(=O)O)C4=O)C3=O (stereo partly drawn) [Gh-3351, 2-butenoic acid, 2-methyl-4-[(1R,3aS,5S,11S,14aS)-3a,4,5,7-tetrahydro-8-hydroxy-3,3,11-trimethyl-13-(2,3-epoxy-3-methylbutyl)-11-(4-methyl-3-pentenyl)-7,15-dioxo-1,5-methano-1H,3H,11H-furo[3.4-g]pyrano[3.2-b]xanthen-1-yl]-,(2Z)-]
- LC50 (50% lethal concentration) [1]: 3.3 µg/mL (≈ 5.12 µM)

SMILES: CO[C@@]12[C@H](COC(N)=O)C3=C(C(=O)C(C)=C(N)C3=O)N1C[C@@H]1N[C@@H]12 [Mitomycin, mitomycin, reference compound]
- pIC50 ([4]; read-out: IC50 (50% inhibition concentration), MCF-7, positive control): 6.82

SMILES: CC(C)=CCC[C@]1(C)C=Cc2c(O)c3c(c(CC(O)C(C)(C)O)c2O1)O[C@]12C(=C[C@@H]4CC1C(C)(C)OC2(C/C=C(/C)C(=O)O)C4=O)C3=O (stereo partly drawn) [Gh-1052, 2-butenoic acid, 2-methyl-4-[(1R,3aS,5S,11R,14aS)-3a,4,5,7-tetrahydro-8-hydroxy-3,3,11-trimethyl-13-(2,3-dihydroxy-3-methylbutyl)-11-(4-methyl-3-pentenyl)-7,15-dioxo-1,5-methano-1H,3H,11H-furo[3.4-g]pyrano[3.2-b]xanthen-1-yl]-,(2Z)-]
- IC50 [2]: 0.22 µg/mL (≈ 0.332 µM)
- IC50 [3]: 1.6 µg/mL (≈ 2.41 µM)
- IC50 [4]: 0.52 µg/mL
- IC50 [5, 9]: 0.46 µg/mL (≈ 0.694 µM)
- IC50 [6]: 1.2 µg/mL (≈ 1.81 µM)
- IC50 [7]: 0.23 µg/mL (≈ 0.347 µM)
- IC50 [1]: 0.47 µg/mL (≈ 0.709 µM)

SMILES: CC(C)=CCc1c2c(c(O)c3c1O[C@]14C(=C[C@@H]5CC1C(C)(C)OC4(C/C=C(/C)C(=O)O)C5=O)C3=O)C=C[C@@](C)(C/C=C/C(C)(C)O)O2 [Gh-3272, 2-butenoic acid, 2-methyl-4-[(1R,3aS,5S,11R,14aS)-3a,4,5,7-tetrahydro-8-hydroxy-3,3,11-trimethyl-13-(3-methyl-2-butenyl)-11-(4-hydroxy-4-methyl-2E-pentenyl)-7,15-dioxo-1,5-methano-1H,3H,11H-furo[3.4-g]pyrano[3.2-b]xanthen-1-yl]-,(2Z)-]
- LC50 (50% lethal concentration) [1]: 2.5 µg/mL (≈ 3.88 µM)

SMILES: CC(C)=CCC[C@@]1(C)C=Cc2c(O)c3c(c(CC(O)C(C)(C)O)c2O1)O[C@]12C(=C[C@@H]4CC1C(C)(C)OC2(C/C=C(/C)C(=O)O)C4=O)C3=O (stereo partly drawn) [Gh-1036, 2-butenoic acid, 2-methyl-4-[(1R,3aS,5S,11S,14aS)-3a,4,5,7-tetrahydro-8-hydroxy-3,3,11-trimethyl-13-(2,3-dihydroxy-3-methylbutyl)-11-(4-methyl-3-pentenyl)-7,15-dioxo-1,5-methano-1H,3H,11H-furo[3.4-g]pyrano[3.2-b]xanthen-1-yl]-,(2Z)-]
- IC50 [2]: 0.29 µg/mL (≈ 0.438 µM)
- IC50 [3]: 1.4 µg/mL (≈ 2.11 µM)
- IC50 [4]: 0.35 µg/mL
- IC50 [5, 9]: 0.22 µg/mL (≈ 0.332 µM)
- IC50 [6]: 0.88 µg/mL (≈ 1.33 µM)
- IC50 [7]: 0.45 µg/mL (≈ 0.679 µM)
- IC50 [1]: 0.46 µg/mL (≈ 0.694 µM)
